Reference: PMC10218941, “Design, Synthesis, Antiproliferative Actions, and DFT Studies of New Bis–Pyrazoline Derivatives as Dual EGFR/BRAF^V600E Inhibitors” (International Journal of Molecular Sciences, 2023)

Legend:
[1] = system: Panc-1 (pancreatic cancer cell line); test: Antiproliferative assay (MTT), Panc-1; assay type: cell-based; conditions: Homo sapiens, read-out: Antiproliferative Activity IC50 ± SEM (µM) Panc-1
Description: (§1) The antiproliferative activity of pyrazoline hybrids 8–17 was tested against the four human cancer cell lines Panc-1 (pancreatic cancer cell line), MCF-7 (breast cancer cell line), HT-29 (colon cancer cell line), and A-549 (lung cancer cell line) using the MTT assay and doxorubicin as the reference drug. See Appendix SA (Supplementary File). […]
(§2) 4.2.1.2. Assay for antiproliferative effect
(§3) To explore the antiproliferative potential of compounds propidium iodide fluorescence assay was performed using different cell lines such as Panc -1 (pancreas cancer cell line), MCF-7 (breast cancer cell line), HT-29 (colon cancer cell line) and A-549 (epithelial cancer cell line), respectively. To calculate the total nuclear DNA, a fluorescent dye (propidium iodide, PI) is used which can attach to the DNA, thus offering a quick and precise technique. PI cannot pass through the cell membrane and its signal intensity can be considered as directly proportional to quantity of cellular DNA. Cells whose cell membranes are damaged or have changed permeability are counted as dead ones. The assay was performed by seeding the cells of different cell lines at a density of 3000-7500 cells/well (in200μl medium) in culture plates followed by incubation for 24h at 37 °C in humidified 5%CO2/95% air atmospheric conditions. The medium was removed; the compounds were added to the plates at 10 μM concentrations (in 0.1% DMSO) in triplicates, followed by incubation for 48h. DMSO (0.1%) was used as control. After incubation, medium was removed followed by the addition of PI (25 μl, 50μg/mL in water/medium) to each well of the plates. At - 80 °C, the plates were allowed to freeze for 24 h, followed by thawing at 25 °C. A fluorometer (Polar-Star BMG Tech) was used to record the readings at excitation and emission wavelengths of 530 and 620 nm for each well. The percentage cytotoxicity of compounds was calculated using […]
(§4) Where ATC= Absorbance of treated cells and AC= Absorbance of control. Erlotinib was used as positive control in the assay. […]

[2] = system: MCF-7 (breast cancer cell line); test: Antiproliferative assay (MTT), MCF-7; assay type: cell-based; conditions: Homo sapiens, MCF7; read-out: Antiproliferative Activity IC50 ± SEM (µM) MCF-7
Description: (§5) The antiproliferative activity of pyrazoline hybrids 8–17 was tested against the four human cancer cell lines Panc-1 (pancreatic cancer cell line), MCF-7 (breast cancer cell line), HT-29 (colon cancer cell line), and A-549 (lung cancer cell line) using the MTT assay and doxorubicin as the reference drug. See Appendix SA (Supplementary File).
(§6) 4.2. Biological evaluation
(§7) 4.2.1. Cytotoxic activity using MTT Assay and evaluation of IC50 […]
(§8) 96-well flat-bottomed cell culture plates were used to seed the cells at a […]
(§9) of 10^4 cells mL-1. The medium was aspirated from all the wells of culture plates after 24 h followed by the addition of synthesized compounds (in 200 μL medium to yield a final concentration of 0.1% (v/v) dimethyl sulfoxide) into individual wells of the plates. Four wells were designated to a single compound. The plates were allowed to incubate at 37°C for 96 h. Afterwards, the medium was aspirated and 3 -[4,5-dimethylthiazol-2-yl]-2,5-diphenyltetrazolium bromide (MTT) (0.4 mg/mL) in medium was added to each well and subsequent ly incubated for 3 h. The medium was aspirated and 150 μL dimethyl sulfoxide (DMSO) was added to each well. The plates were vortexed followed by the measurement of absorbance at 540 nm on a microplate reader. The results were presented as inhibition (%) of proliferation in contrast to controls comprising 0.1% 4.2.1.2. Assay for antiproliferative effect
as §3, §4

[3] = system: four human cancer cell lines (A-549, MCF-7, Panc-1, HT-29); test: Antiproliferative assay, mean of four cancer cell lines (GI50); assay type: cell-based; conditions: mean over A-549, MCF-7, Panc-1, HT-29
[4] = system: HT-29 (colon cancer cell line); test: Antiproliferative assay (MTT), HT-29; assay type: cell-based; conditions: Homo sapiens, read-out: Antiproliferative Activity IC50 ± SEM (µM) HT-29
Description: as §1, §2, §3, §4

[5] = Cell viability assay (MTT) on normal mammary epithelial cells; assay type: cell-based; conditions: human, MCF-10A normal mammary gland epithelial cells, MCF-10A cells, four days
Description: To test the viability of new substances, the epithelial (MCF-10A) cell line of the normal human mammary gland was used. Compounds 8–17 were incubated for four days on MCF-10A cells before being tested for viability using the MTT assay. According to Table 1, none of the substances tested were cytotoxic, and cell viability at 50 µM was greater than 87% for the compounds tested.
The normal human mammary gland epithelial (MCF-10A) cell line was used to test the viability of new compounds [46, 47]. See Appendix SA (Supplementary File).
as §6
4.2.1. Cytotoxic activity using MTT Assay and evaluation of IC50
MTT assay was performed to investigate the effect of the synthesized compounds on mammary epithelial cells (MCF-10A). The cells were propagated in medium consisting of Ham's F-12 medium/ Dulbecco's modified Eagle's medium (DMEM) (1:1) supplemented with 10% foetal calf serum, 2 mM glutamine, insulin (10 μg/mL), hydrocortisone (500 ng/mL) and epidermal growth factor (20 ng/mL). Trypsin ethylenediamine tetra acetic acid (EDTA) was used to passage the cells after every 2-3 days. 96-well flat-bottomed cell culture plates were used to seed the cells at a […]
as §9, with “The results were presented as inhibition (%) of proliferation in contrast to controls comprising 0.1% 4.2.1.2. Assay for antiproliferative effect” left out

EGFR = target: T1, EGFR (Homo sapiens, UniProt P00533); test: EGFR inhibitory assay; assay type: biochemical; conditions: read-out: EGFR Inhibition IC50 ± SEM
T1 construct: 645–1186); His6 (N); made in house; host or cells: Sf-9 insect cells (baculovirus; pBlueBacHis2B / pFASTBacHTc
T1 sequence (P00533 669-1210): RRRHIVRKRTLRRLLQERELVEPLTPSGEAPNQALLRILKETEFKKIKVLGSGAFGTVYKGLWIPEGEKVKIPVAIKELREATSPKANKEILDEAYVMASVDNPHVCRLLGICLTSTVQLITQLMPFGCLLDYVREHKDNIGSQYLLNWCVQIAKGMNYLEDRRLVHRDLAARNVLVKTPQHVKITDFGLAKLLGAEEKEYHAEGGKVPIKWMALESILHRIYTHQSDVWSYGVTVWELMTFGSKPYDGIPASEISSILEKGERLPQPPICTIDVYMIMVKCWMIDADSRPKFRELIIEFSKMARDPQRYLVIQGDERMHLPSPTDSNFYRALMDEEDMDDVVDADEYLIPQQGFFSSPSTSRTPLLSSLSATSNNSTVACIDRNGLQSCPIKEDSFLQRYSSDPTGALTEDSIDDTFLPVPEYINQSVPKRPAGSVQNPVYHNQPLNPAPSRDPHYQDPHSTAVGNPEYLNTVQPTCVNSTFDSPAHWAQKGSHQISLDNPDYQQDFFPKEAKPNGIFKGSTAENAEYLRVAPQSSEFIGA
Description: 4.2.2. EGFR inhibitory assay
Baculoviral expression vectors including pBlueBacHis2B and pFASTBacHTc were used […]
(1 picture or pasted object on this page, not shown here)
5ʹ upstream to the EGFR sequence comprised a sequence that encoded (His)6. Sf-9 cells were infected for 72h for protein expression. The pellets of Sf-9 cells were solubilized in a buffer containing sodium vanadate (100 μM), aprotinin (10 μg/mL), triton (1%), HEPES […]
centrifugation for 20 min.
Histidine-linked proteins were first eluted with 250 and then […]
enhancement solution was added to each well and the signal was recorded at excitation and […]
The autophosphorylation percentage inhibition by compounds was calculated using the following equation: […]

[6] = system: A-549 (lung cancer cell line); test: Antiproliferative assay (MTT), A-549; assay type: cell-based; conditions: Homo sapiens, A549; read-out: Antiproliferative Activity IC50 ± SEM (µM) A-549
Description: as §5, §6, §7, §8, §9, §3, §4

IC50 [1] | IC50 [2] | IC50 [3] | IC50 [4] | IC50 (EGFR) | IC50 [6] | Compound | viability at 96 h, 50 µM [5]
1.1 ± 0.1 µM | 0.9 ± 0.1 µM | 1050 nM | 1.2 ± 0.1 µM | 81 ± 5 nM | 1 ± 0.1 µM | COc1ccc(C2CC(c3ccc(OCC(=O)Nc4ccc(C5=NNC(c6ccc(OC)c(OC)c6)C5)cc4)cc3)=NN2)cc1 (centres unmarked) [Compound 12, 2-(4-(5-(4-Methoxyphenyl)-4,5-dihydro-1H-pyrazol-3-yl)phenoxy)-N-(4-(5-(3,4-dimethoxyphenyl)-4,5-dihydro-1H-pyrazol-3-yl)phenyl)acetamide] | 90%
1.3 ± 0.1 µM | 1 ± 0.1 µM | 1200 nM | 1.3 ± 0.1 µM | 87 ± 6 nM | 1.2 ± 0.1 µM | COc1ccc(C2CC(c3ccc(NC(=O)COc4ccc(C5=NNC(c6ccc(OC)c(OC)c6)C5)cc4)cc3)=NN2)cc1 (centres unmarked) [Compound 17, 2-(4-(5-(3,4-Dimethoxyphenyl)-4,5-dihydro-1H-pyrazol-3-yl)phenoxy)-N-(4-(5-(4-methoxyphenyl)-4,5-dihydro-1H-pyrazol-3-yl)phenyl)acetamide] | 91%
